Results from patent US9034891B2, “Bicyclic heterocyclic spiro compounds” (ISRAEL INSTITUTE FOR BIOLOGICAL RESEARCH, priority 2009, dated 2015).
Values joined by “and” are separate entries in the source; they are usually repeats but may differ in a detail not shown here. Identical values can stand only once.

How the values were obtained:
PC12M1 cells = assay: Mitochondrial apoptosis pathway, Bax and Bcl-2 immunoreactivity in PC12M1 cells; parameters: Emax: dose or concentration left out as unconfirmed
Description: These cells were partially differentiated (2-3 days), as observed under microscope. […] The pellet (rich mitochondrial fraction) was re-suspended with 200 μl Ripa buffer and lysed by rapid passage through a syringe needle (23G) for five to six times. The lysate was then used for further evaluation.
Bands were probed using the Rabbit Bax antibody (1:1000, Cell signaling, Cat. No. 2772) and Rabbit Bcl-2 antibody (1:1000, Cell signaling, Cat. No. 2870) followed by anti rabbit IgG (H&L) HRP (1:5,000, Jackson Immuno Research, 111-035-144).

GSK-3β = assay: Phospho-GSK3β (Ser 9) western blot in PC12 cells transfected with M1 mAChR, +Aβ25-35; format: cell-based, rat; conditions: 100 μM-1 nM; Aβ25-35 20 μM
Description: Anti-GSK-3 (Santa Cruz Biotechnology) is a phosphorylation-independent monoclonal antibody reactive with both GSK-3α and GSK3β. In the same experiments the status of tau protein phosphorylation was studied using mouse anti Tau-1 monoclonal antibody (Chemicon, CAT number MAB3420), which recognizes an unphosphorylated epitope of tau.

M2-M5 mAChR subtypes = assay: Intracellular Ca2+ mobilization in cells stably transfected with M2-M5 mAChR subtypes; format: cell-based
Description: To evaluate selectivity for a subtype of mAChR, in particular the M1 mAChR vs. M3 and MS mAChR, the assays were calibrated using ligands that have a combined activity, e.g. M1 agonistic and M3 antagonistic or M1 agonistic and MS antagonistic profiles, respectively. This can eliminate effects due to different receptor reserves in cell-based assays.

Wistar rats = assay: Passive avoidance, trihexyphenidyl-induced memory impairment in rats; format: in vivo, rat
Text: (§1) Trihexyphenidyl is a selective M1 muscarinic antagonist that crosses the blood brain barrier and induces memory and learning impairments (Bymaster et al., J Pharmacol Exp. Ther. 267: 16-24, 1993; Roldan et al., Neurosci. Lett. 230: 93-96, 1997; Kimura et al., Brain Res. 834: 6-12, 1999). […] Naive Wistar rats were used in the experiments below. The passive avoidance (PA) task consists of a training (acquisition) phase and a retention phase. In the training procedure each rat was individually placed in the small illuminated compartment and after 60 s. of familiarization/adaptation, the door to the large compartment was opened and the latency to enter was measured (Initial Latency) Immediately following entry into the dark compartment, the door was closed and inescapable foot shock (0.6 mA for 3 s) was delivered through the grid floor. […] After the acquisition trial the rat was returned to its home cage. Retention of the passive avoidance task was measured 24 h later, by again placing the rat in the light compartment and after a 60 s adaptation interval, the door was opened and the latency to re-enter the dark compartment was measured. […] Two separate experiments were conducted. […] In both experiments the rats were divided into 2 groups. One main group was treated with trihexyphenidyl (5 mg/kg, s.c) and the second main group was treated with vehicle (DDW-1 ml/kg, s.c.), 30 min before the shock.
In a further extension of these studies, retention of the passive avoidance task was measured 72 h later, by again placing the rat in the light compartment and after a 60 s adaptation interval, the door was opened and the latency to re-enter the dark compartment was measured. A cutoff point of 600 s was used for retention latency. […] Rats were divided into 2 groups. One group (N=30) was treated with trihexyphenidyl (5 mg/kg, s.c) and the second group (N=29) was treated with vehicle (DDW-1 ml/kg, s.c.), 30 min before the shock.

rats = assay: Passive avoidance, MK-801-induced impairment in rats; format: in vivo, rat
Text: as §1
MK-801 is an NMDA antagonist that induces cognitive behavioral impairments in rodents. […] In the first experiment (dose-finding study of MK-801) rats were divided into 4 groups. Three groups (N=27) were treated with MK-801 (50, 80 or 100 μg/kg, s.c) and the fourth group (N=10) was treated with vehicle (saline-1 ml/kg, s.c.), 30 min before the shock. […] One group (N=80) was treated with MK-801 (80 μg/kg, s.c) and the second group (N=59) was treated with the vehicle (saline-1 ml/kg, s.c.).

α7 nicotinic receptor = α7 nicotinic receptor (Homo sapiens, UniProt P36544); assay: Binding to α7 nicotinic receptor; conditions: 0.1 nM-10 μM
Text: It was specifically designed to provide information not only on potential limitations of drug candidates, but also for off-target activity identification. […] In a further extension of this study, functional studies were done on most of these receptors.

M1 mAChR = biological target: T1, M1 mAChR (Homo sapiens, UniProt P11229); assay: αAPPs secretion in CHO cells double transfected with human APP695 and human M1 mAChR; format: cell-based
T1 sequence (P11229 1-460): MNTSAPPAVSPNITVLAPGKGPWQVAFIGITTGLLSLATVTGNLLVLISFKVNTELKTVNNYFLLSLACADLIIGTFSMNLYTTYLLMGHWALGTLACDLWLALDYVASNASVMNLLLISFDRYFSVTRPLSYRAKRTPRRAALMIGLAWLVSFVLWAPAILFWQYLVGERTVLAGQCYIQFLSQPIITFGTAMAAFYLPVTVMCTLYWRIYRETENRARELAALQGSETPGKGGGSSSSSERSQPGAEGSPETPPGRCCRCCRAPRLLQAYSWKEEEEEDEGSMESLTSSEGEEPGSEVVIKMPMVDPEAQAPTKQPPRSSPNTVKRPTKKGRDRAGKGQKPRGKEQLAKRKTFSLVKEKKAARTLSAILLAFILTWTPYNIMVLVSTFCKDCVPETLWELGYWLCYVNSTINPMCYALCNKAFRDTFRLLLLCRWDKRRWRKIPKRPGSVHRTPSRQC
Description: α-APPs Secretion studies following incubation with the tested compounds were performed as described in Haring, et al. J. Neurochem., 1998, 71:2094-103. […] A day later, cells were washed twice with serum free media, and treated with the test compound at various concentrations ranging from 0.1 nM to 100 μM. […] After 1 hour the conditioned medium was collected to cold Eppendorf tubes, which included a protease inhibitor cocktail (0.1 mM phenylmethylsulphonyl fluoride (PMSF); 5 μg/ml leupeptin; 5 μg/ml pepstatin and 5 units/ml aprotinin) for determining αAPPs release. The protein content of each sample was concentrated using Centricon tubes (Amicon, Beverly, Mass.). […] CHO cells double transfected with human APP695 and M1 mAChR APPs bands were probed using anti-amyloid beta protein (1:1000, monoclonal 6E10 antibody, MAB1560, Chemicon) and peroxidase-linked rabbit anti mouse IgG (1:5,000; Jackson Immuno Research, PA). PC12 cells stably transfected with M1 mAChR APPs bands were probed using the anti-Alzheimer precursor protein A4 (1:4,000; monoclonal 22C11 antibody, Boehringer Mannheim) and the peroxidase-linked rabbit anti mouse IgG (1:20,000; Jackson Immuno Research, PA). Following extensive washout, the membranes were treated with Western Lightning Chemiluminescence Reagent Plus (PerkinElmer Life Sciences, MA) followed by exposure to SuperRX film (Fuji Medical X-ray film, Tokyo, Japan). Quantitative determination of the total APPs bands was performed by Scion Image program (NIH, Bethesda, USA). Samples of control and CCh were assayed in parallel and thus enabled compilation of data from separate experiments.

ERK 1/2 phosphorylation = assay: Phospho-p44/42 MAPK (ERK 1/2) detection in PC12M1 cells; format: cell-based, rat; conditions: 3 hours

α7 nicotinic receptor, sequence (P36544 23-502): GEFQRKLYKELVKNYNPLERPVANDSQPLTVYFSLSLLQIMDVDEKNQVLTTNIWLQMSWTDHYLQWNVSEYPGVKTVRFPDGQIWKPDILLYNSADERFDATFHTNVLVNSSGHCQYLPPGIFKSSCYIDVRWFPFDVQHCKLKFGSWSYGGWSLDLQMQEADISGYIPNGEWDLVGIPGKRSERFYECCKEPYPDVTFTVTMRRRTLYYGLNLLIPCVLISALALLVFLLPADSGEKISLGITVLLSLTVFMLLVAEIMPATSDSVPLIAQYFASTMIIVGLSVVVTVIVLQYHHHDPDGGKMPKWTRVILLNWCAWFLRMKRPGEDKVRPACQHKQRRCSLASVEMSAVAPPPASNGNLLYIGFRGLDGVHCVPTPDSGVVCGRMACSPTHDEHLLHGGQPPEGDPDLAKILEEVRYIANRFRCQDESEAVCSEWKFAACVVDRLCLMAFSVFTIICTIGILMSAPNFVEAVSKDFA

C[C@@H]1SC2(CCN(C)CC2)CN1C(=O)CCc1c[nH]c2ccccc12 (single isomer, unassigned) [AF710B]
Bax elevation after NGF deprivation (PC12M1 cells; PC12M1 cells): attenuated Bax elevation | Bcl-2, maximum effect (PC12M1 cells; PC12M1 cells, Aβ 25-35, 1 nM): 164±32% of control | Emax (PC12M1 cells; Rattus norvegicus, read-out: Aβ 25-35 induced neurotoxicity expressed as Bax/Bcl2, maximum effect): 18% | overactivation of GSK-3β induced by Aβ25-35 (GSK-3β): inhibited the overactivation of GSK-3β | agonistic activity on the M2-M5 mAChR subtypes (M2-M5 mAChR subtypes): did not show detectable agonistic activity | retention latency (Wistar rats; 1 μg/kg po, 72 h, cutoff 600 s, trihexyphenidyl+DDW 98.6±28.0, control 568.7±23.7): 276.3 ± 60.7 s | retention latency (Wistar rats; 10 μg/kg po, 72 h, cutoff 600 s): 272.7 ± 51.6 s | retention latency (Wistar rats; AF710B 10 μg/kg with NE-100 1 mg/kg): 185.4 ± 44.0 s | retention latency (Wistar rats; Experiment 1, 10 μg/kg po, 24 h, cutoff 300 s, trihexyphenidyl+DDW 54.22±14.60, control 242.00±30.60): 252.50 ± 32.30 s | retention latency (Wistar rats; Experiment 1, 30 μg/kg po, 24 h, cutoff 300 s): 178.82 ± 32.70 s | retention latency (Wistar rats; Experiment 1, 100 μg/kg po, 24 h, not different from trihexyphenidyl+DDW): 122.00 ± 34.60 s | retention latency (Wistar rats; Experiment 2, 1 μg/kg po, 24 h, trihexyphenidyl+DDW 63.89±18.79, control 274.70±20.8): 215.6 ± 36.00 s | retention latency (Wistar rats; Experiment 2, 3 μg/kg po, 24 h): 219.80 ± 36.00 s | retention latency (Wistar rats; NE-100 experiment, AF710B 10 μg/kg, trihexyphenidyl+DDW 122.0±29.2, control 525.7±51.0): 361.7 ± 67.1 s | cognitive enhancer dose range (Wistar rats; po, trihexyphenidyl-induced passive avoidance impairment): 1 to 30 µg/kg | retention latency (rats; 10 μg/kg po, MK-801 80 μg/kg sc, MK-801+DDW 94.7±24.7): 336.3 ± 70 s and 336.3 ± 70.0 s | retention latency (rats; 30 μg/kg po, MK-801 80 μg/kg sc): 370.0 ± 60 s and 370.0 ± 57.0 s | retention latency (rats; 100 μg/kg po, MK-801 80 μg/kg sc): 325.6 ± 66.6 s | retention latency vs. MK-801 rats treated with DDW (rats; 1, 3 and 5 or 300 μg/kg, po): not significantly different | retention latency (rats; AF710B 10 μg/kg with NE-100 1 mg/kg, MK801 80 μg/kg): 184.8 ± 58.0 s | retention latency (rats; AF710B 30 μg/kg with NE-100 1 mg/kg, MK801 80 μg/kg): 227.3 ± 38.5 s | cognitive enhancer dose range (rats; po, MK801-induced passive avoidance impairment): 10 to 100 µg/kg | binding to α7 nicotinic receptor (α7 nicotinic receptor): does not bind | release of αAPPs (M1 mAChR; CHO cells, 0.1 nM to 1 μM): enhanced the release of αAPPs | maximal αAPPs secretion in comparison to untreated control cells (M1 mAChR; doubly-transfected CHO cells, AF710B at 0.01 μM, AF710 at 0.1 μM, AF710A at 1 μM): 225% | phospho-ERK1/2, compound alone (ERK 1/2 phosphorylation): does not increase
